Reference: patent US8865408B2, “Signature for the diagnosis of cancer aggressiveness and genetic instability” (Centre National de la Recherche Scientifique (CNRS), priority 2009, dated 2014)

Experiments:
[1] = tested on: POLQ overexpressing (Q1, Q2, Q3) and isogenic control (CTL2, CTL5) cells; assay: Clonogenic assay, sensitivity to alkylating agents; type: cell-based, human; conditions: POLQ over-expressing clones vs isogenic controls; MMS 1 h at 37° C., MNU continuous
Method: FIG. 9. Sensitivity to alkylating agents. Drug sensitivity was determined by clonogenic assay. Sensitivity of POLQ overexpressing (Q1, Q2, Q3) and isogenic control (CTL2, CTL5) cells to methyl methanesulfonate (MMS) and N-methyl-N-nitrosourea (MNU). Survival is expressed as the relative plating efficiency of treated cells to the controls. […] Results are the mean+/−SD of at least three separate experiments performed in duplicate.
POLQ overexpression was immuno-detected as published (Seki et al. Nucleic Acids Res 31: 6117-6126, 2003), using purified protein as a size control.
Treatment was 1 h at 37° C. for methyl methanesulfonate (MMS) and continuous for N-methyl-N-nitrosourea (MNU) Immunodetection of γ-H2AX and PT68-CHK2 was carried out according to Rao et al. (Rao et al. Mol Cancer Res 5:713-24, 2007).
A proposed role of POLQ in BER could be that over-expressed POLQ interferes with the BER pathway and leads to an accumulation of endogenous DNA damage (including damage generated by reactive oxygen species). To test this hypothesis, we measured the sensitivity of the POLQ over-expressing cells to methyl-methanesulfonate (MMS) and Nitroso-N-methylurea (MNU) (FIG. 9), both of which induce DNA damage repaired by BER.

MCF7 cells = assay: Clonogenic assay, sensitivity to Chk2 inhibitor; type: cell-based; conditions: MCF7 compared with MDA-MB231 cells, 1 μM to 150 μM during 16 hours, seven more days
Method: FIG. 12. Effect of POLQ gene expression level on sensitivity to a Chk2 inhibitor. […] Survival is determined in a clonogenic assay. MCF7: squares; MDA-MB231: diamonds (B) POLQ expression is higher in MCF7 than in MDA-MB231. Gene expression levels are assayed by RT-PCR. C51 is a normal breast cell line.
MDA-MB231 and MCF7 breast cancer cells (ATCC) were grown in RPMI 1640+ glutamax medium. A 13.8 mM Chk2 inhibitor II Hydrate (Sigma RefC3742) stock solution was prepared by diluting the agent in DMSO (Sigma) and stored at −20° C. This solution was diluted in culture medium to give as indicated the final drug concentration. Cells were exposed to different concentrations ranging from 1 μM to 150 μM during 16 hours. Cells were washed with PBS buffer, fresh medium was added and cells were incubated for seven more days. Cells were fixed with NaCl 0.9% and stained with crystal violet (Sigma C3886). Clones containing more than 20 cells were counted. For the clonogenic assay 400 cells were seeded in six-well plates and incubated overnight. The POLQ expression was measured by real-time PCR as described above.
Cells overexpressing POLQ accumulate DNA damage. […] In order to test this hypothesis, the viability of the MCF7 and MDA-MB231 cells was determined in the presence of increasing amounts of a Chk2 inhibitor. […]

## CN(N=O)C(N)=O [MNU, N-methyl-N-nitrosourea]
[1]
  effect of POLQ over-expression on survival to treatment: did not significantly affect survival

## COS(C)(=O)=O [MMS, methyl methanesulfonate]
[1]
  effect of POLQ over-expression on survival to treatment: did not significantly affect survival

## NC(=O)c1ccc2nc(-c3ccc(Oc4ccc(Cl)cc4)cc3)[nH]c2c1.O [Chk2 inhibitor II Hydrate]
MCF7 cells
  sensitivity to Chk2 inhibitor (survival in clonogenic assay): higher sensitivity
MCF7 cells; listed as CHK2 inhibitor
  sensitivity to Chk2 inhibitor (survival in clonogenic assay): hypersensitive
